Measurements from patent publication US7833967B2, “Synthetic antimicrobial polypeptides” (priority 2003, dated 2010).

The substances below were run on E. coli TOP10 (assay: Suicide expression system (SES) growth inhibition). Conditions: Table 1; 0.1% inducer (arabinose), pBAD/gIIIA in E. coli TOP10, Bioscreen C 37° C., end point OD450 vs control vector.
Type: cell-based

Compared with “2 (RRRPRFPPRFPPRFPPRFPPRFPPRFP; Synthetic antimicrobial peptide) [compound 2]”, “1 (RRRPPRFPPRFPPRFPPRFPPRFPPRF; Synthetic antimicrobial peptide) [compound 1]” is higher in “Growth inhibition (%)” value: 45% for the first, 48% for the second.

Same assay, conditions: Table 2; variants of SEQ ID NO:1, re-tested in the Bioscreen C

“17 (RRRPPRIPPRLPPRIPPRFPPRFPPRL; Synthetic antimicrobial peptide) [compound 17]” was tested, and the “Growth inhibition (%)” value was 95%.

Same assay, conditions: Table 3; variants of SEQ ID NO:5, re-tested in the Bioscreen C

Going from “39 (RRRPRPFPRPFPRPFPRPLPRPFPRPF; Synthetic antimicrobial peptide) [compound 39]” to “54 (RRRPRPFPRPVPRPVPRPFPRPIPRPL; Synthetic antimicrobial peptide) [compound 54]”, the “Growth inhibition (%)” value rises from 56% to 65%.

First: 47 (RRRPRPFPRPFPRPVPRPIPRPFPRPF; Synthetic antimicrobial peptide) [compound 47]
Second: 32 (RRRPRPFPRPFPHPIPRPLPRPFPRPI; Synthetic antimicrobial peptide) [compound 32]
The “Growth inhibition (%)” value of the first is higher: 92% for the first, 77% for the second.

Compared with “45 (RRRPRPFPRPFPRPLPRPIPRPFPRPV; Synthetic antimicrobial peptide) [compound 45]”, “36 (RRRPRPFPRPFPRPFPRPFPRPIPRPI; Synthetic antimicrobial peptide) [compound 36]” is higher in “Growth inhibition (%)” value: 69% for the first, 77% for the second.

With “61 (RRRPRPVPRPFPRPVPRPLPRPFPRPF; Synthetic antimicrobial peptide) [compound 61]” the “Growth inhibition (%)” value was 97%.

Same assay, conditions: Table 4; variants of SEQ ID NO:10, re-tested in the Bioscreen C

Going from “98 (RRRPFRPPFRPPVRPPIRPPLRPPFRP; Synthetic antimicrobial peptide) [compound 98]” to “124 (RRRPFRPPIRPPLRPPVRPPLRPPFRP; Synthetic antimicrobial peptide) [compound 124]”, the “Growth inhibition (%)” value rises from 63% to 73%.

First: 86 (RRRPIRPPFRPPLRPPLRPPVRPPFRP; Synthetic antimicrobial peptide) [compound 86]
Second: 123 (RRRPFRPPLRPPIRPPIRPPFRPPFRP; Synthetic antimicrobial peptide) [compound 123]
The “Growth inhibition (%)” value of the first is higher: 74% for the first, 65% for the second.

Compared with “106 (RRRPFRPPFRPPFRPPIRPPIRPPLRP; Synthetic antimicrobial peptide) [compound 106]”, “133 (RRRPFRPPIRPPFRPPVRPPIRPPVRP; Synthetic antimicrobial peptide) [compound 133]” is lower in “Growth inhibition (%)” value: 75% for the first, 62% for the second.

Going from “69 (RRRPIRPPFRPPFRPPLRPPFRPPIRP; Synthetic antimicrobial peptide) [compound 69]” to “120 (RRRPLRPPFRPPFRPPFRPPVRPPIRP; Synthetic antimicrobial peptide) [compound 120]”, the “Growth inhibition (%)” value falls from 75% to 68%.

First: 152 (RRRPFRPPFRPPFRPPFRPPVRPPIRP; Synthetic antimicrobial peptide) [compound 152]
Second: 140 (RRRPIRPPIRPPFRPPVRPPVRPPFRP; Synthetic antimicrobial peptide) [compound 140]
The “Growth inhibition (%)” value of the first is higher: 75% for the first, 70% for the second.

Compared with “108 (RRRPLRPPFRPPIRPPVRPPVRPPFRP; Synthetic antimicrobial peptide) [compound 108]”, “153 (RRRPIRPPFRPPIRPPVRPPIRPPFRP; Synthetic antimicrobial peptide) [compound 153]” is lower in “Growth inhibition (%)” value: 76% for the first, 68% for the second.

First: 127 (RRRPIRPPFRPPLRPPFRPPFRPPLRP; Synthetic antimicrobial peptide) [compound 127]
Second: 189 (RRRPFRPPFRPPIRPPVRPPIRPPFRP; Synthetic antimicrobial peptide) [compound 189]
The “Growth inhibition (%)” value of the first is lower: 67% for the first, 79% for the second.

Going from “83 (RRRPLRPPFRPPIRPPVRPPFRPPVRP; Synthetic antimicrobial peptide) [compound 83]” to “90 (RRRPFRPPIRPPFRPPFRPPVRPPFRP; Synthetic antimicrobial peptide) [compound 90]”, the “Growth inhibition (%)” value rises from 72% to 74%.

First: 105 (RRRPIRPPLRPPLRPPFRPPFRPPFRP; Synthetic antimicrobial peptide) [compound 105]
Second: 89 (RRRPFRPPFRPPFRPPVRPPVRPPLRP; Synthetic antimicrobial peptide) [compound 89]
The “Growth inhibition (%)” value of the first is higher: 73% for the first, 70% for the second.

Compared with “73 (RRRPFRPPVRPPFRPPVRPPIRPPVRP; Synthetic antimicrobial peptide) [compound 73]”, “172 (RRRPFRPPIRPPFRPPIRPPVRPPFRP; Synthetic antimicrobial peptide) [compound 172]” is higher in “Growth inhibition (%)” value: 65% for the first, 82% for the second.

First: 169 (RRRPIRPPLRPPVRPPFRPPVRPPFRP; Synthetic antimicrobial peptide) [compound 169]
Second: 190 (RRRPFRPPIRPPFRPPIRPPFRPPFRP; Synthetic antimicrobial peptide) [compound 190]
The “Growth inhibition (%)” value of the first is lower: 67% for the first, 83% for the second.

Compared with “116 (RRRPIRPPFRPPFRPPVRPPIRPPFRP; Synthetic antimicrobial peptide) [compound 116]”, “206 (RRRPFRPPFRPPFRPPFRPPFRPPFRP; Synthetic antimicrobial peptide) [compound 206]” is higher in “Growth inhibition (%)” value: 69% for the first, 77% for the second.

First: 130 (RRRPFRPPIRPPLRPPFRPPVRPPLRP; Synthetic antimicrobial peptide) [compound 130]
Second: 96 (RRRPFRPPIRPPFRPPIRPPLRPPIRP; Synthetic antimicrobial peptide) [compound 96]
The “Growth inhibition (%)” value of the first is higher: 78% for the first, 71% for the second.

Compared with “94 (RRRPFRPPVRPPIRPPVRPPFRPPFRP; Synthetic antimicrobial peptide) [compound 94]”, “79 (RRRPFRPPFRPPFRPPVRPPVRPPFRP; Synthetic antimicrobial peptide) [compound 79]” is higher in “Growth inhibition (%)” value: 77% for the first, 82% for the second.

Compared with “154 (RRRPFRPPFRPPVRPPVRPPFRPPFRP; Synthetic antimicrobial peptide) [compound 154]”, “193 (RRRPFRPPIRPPFRPPIRPPFRPPFRP; Synthetic antimicrobial peptide) [compound 193]” is higher in “Growth inhibition (%)” value: 75% for the first, 81% for the second.

With “65 (RRRPLRPPLRPPVRPPVRPPFRPPFRP; Synthetic antimicrobial peptide) [compound 65]” the “Growth inhibition (%)” value was 89%.

Same assay, conditions: Table 5; mixed-motif library, re-tested in the Bioscreen C

First: 208 (RRRPPRFPRPFPVRPPPRFPRPIPVRP; Synthetic antimicrobial peptide) [compound 208]
Second: 225 (RRRPPRLPRPFPIRPPPRVPRPIPIRP; Synthetic antimicrobial peptide) [compound 225]
The “Growth inhibition (%)” value of the first is lower: 95% for the first, 97% for the second.

Going from “219 (RRRPPRLPRPFPFRPPPRVPRPLPFRP; Synthetic antimicrobial peptide) [compound 219]” to “230 (RRRPPRLPRPFPLRPPPRFPRPLPLRP; Synthetic antimicrobial peptide) [compound 230]”, the “Growth inhibition (%)” value rises from 93% to 94%.

First: 295 (RRRPPRLPRPVPFRPPPRIPRPFPLRP; Synthetic antimicrobial peptide) [compound 295]
Second: 231 (RRRPPRLPRPFPLRPPPRLPRPFPFRP; Synthetic antimicrobial peptide) [compound 231]
The “Growth inhibition (%)” value of the first is lower: 59% for the first, 98% for the second.

Compared with “289 (RRRPPRLPRPLPVRPPPRVPRPFPVRP; Synthetic antimicrobial peptide) [compound 289]”, “264 (RRRPPRLPRPLPFRPPPRFPRPVPVRP; Synthetic antimicrobial peptide) [compound 264]” is lower in “Growth inhibition (%)” value: 95% for the first, 92% for the second.

First: 222 (RRRPPRLPRPFPIRPPPRFPRPVPLRP; Synthetic antimicrobial peptide) [compound 222]
Second: 285 (RRRPPRLPRPLPVRPPPRIPRPFPVRP; Synthetic antimicrobial peptide) [compound 285]
The “Growth inhibition (%)” value of the first is higher: 93% for the first, 91% for the second.

“291 (RRRPPRLPRPLPVRPPPRVPRPVPFRP; Synthetic antimicrobial peptide) [compound 291]” and “270 (RRRPPRLPRPLPFRPPPRVPRPVPVRP; Synthetic antimicrobial peptide) [compound 270]” are the same in “Growth inhibition (%)” value: 90% for the first, 90% for the second.

Going from “247 (RRRPPRLPRPFPVRPPPRVPRPLPFRP; Synthetic antimicrobial peptide) [compound 247]” to “210 (RRRPPRIPRPIPVRPPPRIPRPIPFRP; Synthetic antimicrobial peptide) [compound 210]”, the “Growth inhibition (%)” value rises from 93% to 94%.

First: 227 (RRRPPRLPRPFPIRPPPRVPRPVPIRP; Synthetic antimicrobial peptide) [compound 227]
Second: 217 (RRRPPRLPRPFPFRPPPRVPRPFPLRP; Synthetic antimicrobial peptide) [compound 217]
The “Growth inhibition (%)” value of the first is higher: 94% for the first, 93% for the second.

Going from “234 (RRRPPRLPRPFPLRPPPRVPRPLPIRP; Synthetic antimicrobial peptide) [compound 234]” to “242 (RRRPPRLPRPFPVRPPPRLPRPVPFRP; Synthetic antimicrobial peptide) [compound 242]”, the “Growth inhibition (%)” value falls from 93% to 90%.

Going from “216 (RRRPPRLPRPFPFRPPPRPRPLPVRP; Synthetic antimicrobial peptide) [compound 216]” to “316 (RRRTRHVFARPFPFRPPPRIPRPFPLRP; Synthetic antimicrobial peptide) [compound 316]”, the “Growth inhibition (%)” value rises from 95% to 97%.

Going from “268 (RRRPPRLPRPLPFRPPPRVPRPVPLRP; Synthetic antimicrobial peptide) [compound 268]” to “278 (RRRPPRLPRPLPIRPPPRVPRPLPFRP; Synthetic antimicrobial peptide) [compound 278]”, the “Growth inhibition (%)” value rises from 93% to 98%.

With “280 (RRRPPRLPRPLPLRPPPRFPRPFPVRP; Synthetic antimicrobial peptide) [compound 280]” the “Growth inhibition (%)” value was 97%.
